According to publication PMC10396955, “2-Oxabicyclo[2.1.1]hexanes as saturated bioisosteres of the ortho-substituted phenyl ring” (Nature Chemistry, 2023):
Converted amounts (≈) assume the structure as drawn.

How the values were obtained:
Fusarium oxysporum = assay: Antifungal activity, agar well diffusion method; format: cell-based; conditions: for zone of inhibition at 3.9 µg/mL / zone of inhibition at […] / zone of inhibition at 15.6 µg/mL / zone of inhibition at 31.25 µg/mL / zone of inhibition at 62.5 µg/mL / zone of inhibition at 125 µg/mL / zone of inhibition at 250 µg/mL / zone of inhibition at 500 µg/mL / zone of inhibition at 1000 µg/mL: Fusarium oxysporum, zones st (static growth), read-out: Diameter of inhibition zone; for zone of inhibition at 3.9 µg/mL: 0.0039 mg/mL; for zone of inhibition at […]: 0.0078 mg/mL; for zone of inhibition at 15.6 µg/mL: 0.0156 mg/mL; for zone of inhibition at 31.25 µg/mL: 0.03125 mg/mL; for zone of inhibition at 62.5 µg/mL: 0.0625 mg/mL; for zone of inhibition at 125 µg/mL: 0.125 mg/mL; for zone of inhibition at 250 µg/mL: 0.25 mg/mL; for zone of inhibition at 500 µg/mL: 0.5 mg/mL; for zone of inhibition at 1000 µg/mL: 1 mg/mL, 40 µl per well, 25 °C, 72 h; for lowest inhibition concentration: agar well diffusion, tested 0.0039-1.0 mg/mL
Excerpt: (§1) The agar well diffusion method is widely used to evaluate the antimicrobial activity of different substances (S. Magaldi, S. Mata-Essayag, C. Hartung de Capriles, et al. Well diffusion for antifungal susceptibility testing, Int. J. Infect. Dis. 8, 2004 , 39–45; C. Valgas, S. M. De Souza, E. F. A. Smânia, et al. Screening methods to determine antibacterial activity of natural products. Braz. J. Microbiol. 38 , 2007 , 369–380). Similarly to the procedure used in a disk-diffusion method, the agar plate surface is inoculated by spreading a volume of the microbial inoculum over the entire agar surface. Then, a hole with a diameter of 6 to 8 mm is punched aseptically with a sterile cork borer or a tip, and a volume […] of the antimicrobial agent or extract solution at desired concentration is introduced into the well. Then, agar plates are incubated under suitable conditions depending upon the test microorganism. The antimicrobial agent diffuses in the agar medium and inhibits the growth of the microbial strain tested (M. Balouiri, M. Sadiki, S. K. Ibnsouda. Methods for in vitro evaluating […]
(§2) Agar well diffusion method is a qualitative method used to measure the ability of compounds to inhibit microbial growth. This test is a quick and easy way to measure and compare levels of inhibitory […]
(§3) Antifungal activity of the synthetic compounds using agar well diffusion The compunds were tested towards plant pathogens Fusarium oxysporum Schltdl. and F. verticillioides (Sacc.) Nirenberg isolated from crops. Antifungal activity of the synthetic compounds was evaluated with using of an agar well diffusion method based on a disk diffusion assay for testing filamentous fungi (CLSI M51-A) [CLSI. Method for Antifungal Disk Diffusion Susceptibility Testing of Nondermatophyte Filamentous Fungi; Approved Guideline.CLSI document M51-A. Wayne, PA:
(§4) Clinical and Laboratory Standards Institute; 2010. This method is standardized for Altenaria , Aspergillus, Bipolaris , Fusarium , order Mucorales etc.
(§5) Preparation of synthetic compounds for mycological assay
(§6) Solutions of fungicides and its analogs were diluted in dimethyl sulfoxide (DMSO) to produce the […]
(§7) Antifungal well diffusion method
(§8) The fungal strains were cultured on potato dextrose agar slants (PDA, Eur. Pharm.) and incubated at 25 °C for 5 days. Sterile distilled water was used to cover and resuspend the colonies. Suspension of […]
(§9) conidia was adjusted to inoculums 5×10^6 conidia/mL. The suspension was further diluted in warm PDA 1:10 to obtain final working inoculums 5×10^5 conidia/mL.
(§10) Polypropylene cylinders (d, 5 mm) were placed on the surface and wells punched in the medium were used as reservoir of the test substances in different concentrations. 40 µl of solutions containing 0.0039-1.0 mg/mL of a test compound was added into the wells.
(§11) Each compound was tested in triplicate at different concentrations. Growth control was a well with 40 µl of DMSO, which was used for test components dilution.
(§12) Plates incubated at 25 °C for 72 h. The test compounds at known concentration into contact with an inoculated medium then exerts a growth-inhibiting effect then a clear zone (the zone of inhibition) appears around the test product. Diameter of a clear zone around the well is measured at the end of the incubation period in millimeters. If the fungal strain is susceptible to the antifungal agent, then a zone of inhibition appears on the agar plate. If it is resistant to the test compound, then no zone is evident.
(§13) The size of the zone of inhibition is usually related to the level of antifungal activity present in the […]
(§14) The growth rate of Fusarium oxysporum and F. verticillioides for each well was determined visually and compared with the growth of control.
(§15) As shown in the table the antifungal activity of the 6 compounds, - Fluxapyroxad, compound 28, compound 29, Boscalid, compound 30, compound 31, - were tested against plant pathogenic fungal […]
(§16) toward Fusarium oxysporum (Table S5, Figure S16). Inhibition zones of all compounds characterized […]

Fusarium verticillioides = assay: Antifungal activity, agar well diffusion method; format: cell-based; conditions: for zone of inhibition at 3.9 µg/mL: 0.0039 mg/mL; for zone of inhibition at […]: 0.0078 mg/mL; for zone of inhibition at 15.6 µg/mL: 0.0156 mg/mL; for zone of inhibition at 31.25 µg/mL: 0.03125 mg/mL; for zone of inhibition at 62.5 µg/mL: 0.0625 mg/mL; for zone of inhibition at 250 µg/mL: 0.25 mg/mL; for zone of inhibition at 500 µg/mL: 0.5 mg/mL; for zone of inhibition at 1000 µg/mL: 1 mg/mL, 40 µl per well, 25 °C, 72 h
Excerpt: as §1, §2, §3, §4, §5, §6, §7, §8, §9, §10, §11, §12, §13, §14, §15, §16

[1] = Kinetic solubility in phosphate-buffered saline, pH 7.4; format: physicochemical; conditions: 25 °C, pH 7.4, aqueous buffer, kinetic from dmso stock
Protocol: Analysis of Aqueous Solubility […]
compound (Ondansetron) were assessed for kinetic solubility in phosphate-buffered saline, pH […]
Phosphate buffered saline, pH 7.4 (Sigma-Aldrich, USA; Cat #P3813) […]
MultiScreen HTS 96 Well Filter Plates (Millipore, Ireland; Cat # MSGVS2210) […]
Matrix Multichannel Electronic Pipette 2-125 µL, 5-250 µL, 15-1250 µL (Thermo Scientific, […]
Vacuum pump (Millipore, USA; Model # XX5500000)
The measurements were performed using SpectraMax Plus reader in UV-Vis mode. Acquisition and analysis of the data were performed using SoftMax Pro v.5.4 (Molecular Devices) and Excel […]
Kinetic solubility assay was performed according to the Enamine’s aqueous solubility SOP.
Briefly, using a 20 mM stock solution of the compound in 100% DMSO dilutions were prepared to a theoretical concentration of 400 μM in duplicates in phosphate-buffered saline pH 7.4 […]
for two hours and then filtered through HTS filter plates using a vacuum manifold. The filtrates of test compounds were diluted 2-fold with acetonitrile with 2% DMSO before measuring.
In parallel, compound dilutions in acetonitrile/PBS (1:1) were prepared to theoretical […]
DMSO to generate calibration curves. Ondansetron was used as reference compound to control proper assay performance. 200 μl of each sample was transferred to 96-well plate and measured in 200-550 nm range with 5 nm step.
The concentrations of compounds in PBS filtrate are calculated using a dedicated Microsoft Excel calculation script. Proper absorbance wavelengths for calculations are selected for each compound manually based on absorbance maximums (absolute absorbance unit values for the minimum and maximum concentration points within 0 – 3 OD range). Each of the final datasets is additionally visually evaluated by the operator and goodness of fit (R2) is calculated for each calibration curve. The effective range of this assay is approximately 2-400 μM and the […]

[2] = Fusarium verticillioides, 0 = absence of antifungal activity, read-out: Diameter of inhibition zone
[3] = PBS solubility, pH 7.4, Incubation 1
[4] = PBS solubility, pH 7.4, Incubation 2

| SMILES | zone of inhibition at 3.9 µg/mL (Fusarium oxysporum) [mm] | zone of inhibition at […] (Fusarium oxysporum) [mm] | zone of inhibition at 15.6 µg/mL (Fusarium oxysporum) [mm] | zone of inhibition at 31.25 µg/mL (Fusarium oxysporum) [mm] | zone of inhibition at 62.5 µg/mL (Fusarium oxysporum) [mm] | zone of inhibition at 125 µg/mL (Fusarium oxysporum) [mm] | zone of inhibition at 250 µg/mL (Fusarium oxysporum) [mm] | zone of inhibition at 500 µg/mL (Fusarium oxysporum) [mm] | zone of inhibition at 1000 µg/mL (Fusarium oxysporum) [mm] | lowest inhibition concentration (Fusarium oxysporum) [mg/mL] | zone of inhibition at 3.9 µg/mL (Fusarium verticillioides; [2]) [mm] | zone of inhibition at […] (Fusarium verticillioides; [2]) [mm] | zone of inhibition at 15.6 µg/mL (Fusarium verticillioides; [2]) [mm] | zone of inhibition at 31.25 µg/mL (Fusarium verticillioides; [2]) [mm] | zone of inhibition at 62.5 µg/mL (Fusarium verticillioides; [2]) [mm] | zone of inhibition at 250 µg/mL (Fusarium verticillioides; [2]) [mm] | zone of inhibition at 500 µg/mL (Fusarium verticillioides; [2]) [mm] | zone of inhibition at 1000 µg/mL (Fusarium verticillioides; [2]) [mm] | solubility at 2 h [1, 3] [µM] | solubility at 2 h [1, 4] [µM] | also measured |
| --- | --- | --- | --- | --- | --- | --- | --- | --- | --- | --- | --- | --- | --- | --- | --- | --- | --- | --- | --- | --- | --- |
| O=C(Nc1ccccc1-c1ccc(Cl)cc1)c1cccnc1Cl [Boscalid, reference compound] | 9 ± 0.6 | 9 ± 1.7 | 11 ± 1.5 | 12 ± 1.7 | 24 ± 1 | 25 | 30 | 31 ± 1.2 | 39 ± 0.6 | 0.0039 | 0 | 11 ± 1 | 24 ± 1.5 | 28 ± 1 | 30 ± 0.6 | 39 ± 0.6 | 40 ± 0.6 | 44 ± 1.2 | 9 (≈ 3.09 µg/mL) | 13 (≈ 4.46 µg/mL) | lowest inhibition concentration (Fusarium verticillioides; agar well diffusion, tested 0.0039-1.0 mg/mL): 0.0078 mg/mL; solubility at 2 h ([1]; Solubility): 11 µM (≈ 3.78 µg/mL) |
| Cn1cc(C(=O)Nc2ccccc2-c2cc(F)c(F)c(F)c2)c(C(F)F)n1 [Fluxapyroxad, reference compound] | 14 ± 1.2 | 17 ± 1.2 | 22 ± 1.7 | 28 ± 1.5 | 30 ± 0.6 | 33 ± 1 | 35 ± 0.6 | 38 ± 1.5 | 43 ± 1.53 | < 0.0039 | 19 ± 0.6 | 26 ± 1.2 | 30 ± 1.5 | 33 ± 0.6 | 34 ± 1.2 | 40 ± 1 | 49 ± 1.2 | 56 ± 1.7 | 24 (≈ 9.15 µg/mL) | 27 (≈ 10.3 µg/mL) | zone of inhibition at 125 µg/mL (Fusarium verticillioides; Fusarium verticillioides, 0.125 mg/mL, 0 = absence of antifungal activity, read-out: Diameter of inhibition zone): 36 ± 0.6 mm; solubility at 2 h ([1]; Solubility): 25 µM (≈ 9.53 µg/mL) |
